This experiment relates to CEM cells HIV-1 protection, formazan growth assay. In words: NCI AIDS Antiviral Assay. The note with it: for IC50: measured here: growth of uninfected CEM cells. The procedure, abridged:
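Human CEM cells, uninfected and HIV-1-infected, received five drug concentrations, and growth was read by soluble formazan assay. Compounds giving at least 50% protection were retested; reproducible 100% protection defined confirmed active.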

In general, EC50 refers to the concentration needed to bring the measured effect to its halfway point. As usually defined, the IC50 is the point on the concentration scale where inhibition reaches its midpoint. Higher therefore signals a need for much substance.

The structures appear in SMILES notation. Calls of active or inactive are those of the source.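 The calls were made as follows: active = compounds giving half or more protection of infected cells from virus-caused growth loss, again on retest; inactive = the rest.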 A value given as a limit tells only on which side of the number the result lay.

For the compound `CCC(=N\N=C(N)N)/C(C)=N/N=C(N)N`, the EC50 is over 23.4 µM and the IC50 was over 23.4 µM. For `CC1C(C#N)(C#N)C(C#N)=C(N)C1(Cl)[N+](=O)[O-]` (stereo unspecified), the EC50 was over 200 µM and the IC50 was 3.72 µM.

For `CCCCC(=O)c1c(O)nc2sccn2c1=O`, the EC50 was over 200 µM and the half-maximal inhibitory concentration (IC50) stood at 155 µM.

In the case of `COC1/C=C\OC2(C)Oc3c(C)c(O)c4c(O)c(c(/C=N\OCCO)c(O)c4c3C2=O)NC(=O)/C(C)=C\C=C/C(C)C(O)C(C)C(O)C(C)C(OC(C)=O)C1C` (stereo unspecified), the EC50 is 16.2 µM and the IC50 came to 126 µM. As to `COc1cccc(/C=N/[N-]C(=O)c2ccncc2)c1[O-].[Cu+2].[OH3+]`, the EC50 is over 10.7 µM and the IC50 is over 10.7 µM.

On to `COc1cccc(C(=O)C2C(=O)N(C)CCc3ccccc32)c1OC` (stereo unspecified), for which the EC50 is over 148 µM and the IC50 is over 148 µM. Regarding `CCOC(=O)Cn1c(=O)c(-c2ccccc2NC(C)=O)nc2ccccc21`, the EC50 is over 200 µM and the IC50 was over 200 µM. As to `COc1c2c(cc3c1C(=O)c1c(O)cccc1C3=O)CC(O)CC2` (stereo unspecified), the EC50 was over 200 µM and the IC50 is over 200 µM. Regarding `COc1ccc(CCc2ncc[nH]2)cc1OC`, the EC50 is over 617 µM and the concentration for half-maximal inhibition (IC50) is over 617 µM.

In the case of `COc1nc(C(=O)NNC(=O)c2nc(OC)c3ccccc3c2-c2ccccc2)c(-c2ccccc2)c2ccccc12`, the outcome was inactive.

Take `CC(=O)NC1C(OCc2ccccc2)OC(CO)C(O)C1OCC(=O)N1CCCC1C(=O)NC(CCC(=O)NCCCCCNc1c2ccccc2nc2cccc([N+](=O)[O-])c12)C(N)=O` (stereo unspecified): the EC50 is over 200 µM and the IC50 came out at 0.209 µM. In the case of `c1ccc(CN2C3C4N(Cc5ccccc5)C2C2N(Cc5ccccc5)C(C(N2Cc2ccccc2)N4Cc2ccccc2)N3Cc2ccccc2)cc1`, the EC50 was over 100 µM and the half-maximal inhibitory concentration (IC50) was over 100 µM. As for `COc1ccc(C2CC(c3c(C)nn(-c4ccccc4)c3-c3ccc(C)cc3O)=NN2c2ccccc2)cc1` (stereo unspecified), the EC50 was over 200 µM and the 50% inhibitory concentration (IC50) turned out to be 12.9 µM. For `O=C(c1ccco1)N(Cc1ccco1)C(=S)Nc1ccccc1`, the EC50 was over 200 µM and the half-inhibitory concentration (IC50) is 12 µM. Regarding `C=C(CN)CO[Si](C)(C)C(C)(C)C`, the EC50 is over 200 µM and the 50% inhibitory concentration (IC50) worked out at 110 µM. Consider `CCO[C@@H]1OC(=O)[C@H]2C(c3ccc(Cl)cc3Cl)=NO[C@@H]12`, for which the EC50 is over 22.9 µM and the concentration for half-maximal inhibition (IC50) is over 22.9 µM.

As for `O=C(NC1CCN(Cc2ccccc2)CC1)c1ccc(I)cc1`, the EC50 is over 200 µM and the half-maximal inhibitory concentration (IC50) stood at 15.8 µM. Turning to `CCOC12OC3=C(CC1CC1=C(CCC1=O)O2)C(=O)CC3` (stereo unspecified), the result was inactive. `C=CCP(c1ccccc1)c1ccccc1`: the EC50 was 0.0631 µM and the IC50 is over 200 µM. `O=C1CC(CC(=O)c2ccc(Br)cc2)C(=O)/C1=C(/O)c1ccc(Br)cc1` (stereo unspecified): the EC50 is over 200 µM and the IC50 came out at 41.7 µM. As to `CCOC(=O)CCC(NC(=O)c1ccc(NC(OC)c2nc3cc(C(F)(F)F)ccc3nc2-c2ccccc2)cc1)C(=O)OCC` (stereo unspecified), the EC50 was over 8.13 µM and the IC50 was over 8.13 µM. For `COC1(CC[C@@H](C)COC2OC(CO)C(O)C(O)C2O)O[C@H]2C[C@H]3[C@@H]4CC=C5C[C@@H](OC6OC(CO)C(O)C(OC7OC(CO)C(O)C(O)C7O)C6OC6OC(C)C(O)C(O)C6O)CC[C@]5(C)[C@H]4CC[C@]3(C)[C@H]2[C@@H]1C` (stereo partly specified), the EC50 is over 200 µM and the concentration for half-maximal inhibition (IC50) came to 3.31 µM. Consider `COc1cc(OC)c(CSCC(NC(=O)OCC2c3ccccc3-c3ccccc32)C(=O)O)c(OC)c1` (stereo unspecified), for which the EC50 was over 200 µM and the 50% inhibitory concentration (IC50) was found to be 105 µM. The matching figures for `CCN(CC)c1ccc(N=Cc2cc(=O)n(C)c3ccccc23)cc1`: over 200 µM and 3.72 µM.

Regarding `CC1=CC[C@@]2(C)CC[C@](O)(C(C)C)C2C(OC(=O)c2ccccc2)C1` (stereo partly specified), the EC50 was over 200 µM and the concentration for half-maximal inhibition (IC50) was 13.2 µM. Regarding `COc1cc(/C=C/C=C2\CC/C(=C\C=C\c3ccc(O)c(OC)c3)C2=O)ccc1O`, the EC50 is over 200 µM and the IC50 is 13.2 µM. The matching figures for `N#CCc1nc(C#N)c(N)o1`: 51.3 µM and over 200 µM. With `Cc1ccc(-n2cnc3c(N/N=C4\SCC(=O)N4c4ccccc4)ncnc32)cc1`, the outcome was inactive.

Regarding `COc1ccc(-[n+]2nc(S(=O)(=O)O)c(/C=C/c3ccc(N(C)C)cc3)cc2C#N)cc1`, the EC50 is over 151 µM and the IC50 was over 151 µM.

Regarding `O=C(OC1CCC(=C2SCCCS2)[C@H]1C1SCCCS1)c1ccccc1` (stereo partly specified), the outcome was inactive. `O=S(=O)(O)c1ccc(Nc2ccnc3ccccc23)cc1`: the EC50 was over 200 µM and the concentration for half-maximal inhibition (IC50) is over 200 µM.

Turning to `CCOP12(OCC)NC(=O)OC1(C(F)(F)F)c1ccccc1O2` (stereo unspecified), the EC50 was over 141 µM and the IC50 is over 141 µM. In the case of `CCN1C(Cl)=NS(=O)(=O)c2ccccc21`, the EC50 is over 200 µM and the IC50 is 91.2 µM. Consider `Cc1cn(C2CC(N=[N+]=[N-])C(COC(=O)CCOCCCCCCCCN=[N+]=[N-])O2)c(=O)[nH]c1=O` (stereo unspecified), for which the EC50 is 0.00631 µM and the IC50 amounted to 64.6 µM. The matching figures for `COc1ccc2c(=O)c(-c3cc4c(cc3OC)OCO4)coc2c1`: over 200 µM and over 200 µM. Consider `O=C1C(c2ccccc2)C2C=CC(C2)N1O` (stereo unspecified), for which the EC50 was over 200 µM and the concentration for half-maximal inhibition (IC50) was over 200 µM. Turning to `CC1(C)OCC(C2OC3OC(C)(C)OC3C2=O)O1` (stereo unspecified), the outcome was inactive. Regarding `CC1=C(C(=O)Nc2ccc([N+](=O)[O-])cc2)C(c2cccc([N+](=O)[O-])c2)C(C(=O)Nc2ccc([N+](=O)[O-])cc2)=C(C)N1`, the EC50 was over 4.9 µM and the IC50 was over 4.9 µM. Consider `O=c1cc(NNCc2ccccc2)[nH]c(=O)[nH]1`, for which the EC50 was over 200 µM and the IC50 came to 57.5 µM. Consider `O=C(Nc1cc(Cl)c(Cl)cc1Cl)C(=O)C1C=CCS1(=O)=O` (stereo unspecified), for which the EC50 is over 51.3 µM and the IC50 is over 51.3 µM. On to `CCN(CC)c1ccc2cc(-c3csc(-c4ccc(N(C)C)cc4)n3)c(=O)oc2c1`, for which the EC50 is over 100 µM and the IC50 was determined as 10 µM.

In the case of `CC1=C(C(=O)Nc2cc(F)c(F)cc2F)C(c2ccc3c(c2)OCO3)C(C(=O)Nc2cc(F)c(F)cc2F)=C(C)N1`, the EC50 is over 61.7 µM and the IC50 turned out to be 46.8 µM.

Take `NC(=O)CNC(=O)[C@@H]1CC(OCCC(=O)O)CN1C(=O)C1CCCN1C(=O)OCc1ccccc1` (stereo partly specified): the EC50 was over 200 µM and the IC50 was over 200 µM. With `COc1ccc(/C=N/O)cc1OC`, the EC50 is over 1380 µM and the IC50 turned out to be 776 µM. For the compound `CC1c2c(n(C)c3ccccc23)C2CCC3(CO3)C1N2Cc1ccccc1` (stereo unspecified), the outcome was inactive. For the compound `CC(C)=CCc1cc2c(cc1O)OC[C@H]1c3cc4c(cc3O[C@@H]21)OCO4`, the EC50 is over 53.7 µM and the IC50 was found to be 2.09 µM.

`O=[N+]([O-])c1cc2cnn(CO)c2cc1[N+](=O)[O-]`: the EC50 is over 200 µM and the IC50 turned out to be 16.6 µM. For `C=CCNc1nc2c(s1)C(=O)c1ccccc1C2=O`, the EC50 is over 13.8 µM and the half-inhibitory concentration (IC50) turned out to be 8.32 µM. As to `NC(=O)C(c1ccccc1)N1CCOCC1` (stereo unspecified), the EC50 was over 200 µM and the IC50 turned out to be 1.02 µM. As for `CCOC(=O)CC1(O)C(=O)N(Cc2ccccc2)c2ccccc21` (stereo unspecified), the EC50 was over 200 µM and the IC50 was over 200 µM.

On to `CCCCCCCCCCCCCC/C(=C/OCC[N+](C)(C)C)OC(C)=O` (tested in a mixture with another compound), for which the EC50 is over 200 µM and the IC50 stood at 0.355 µM. On to `COC(OC)c1cc2c(cc1C=O)OCO2`, for which the result was inactive. In the case of `CSc1sc2ccccc2[s+]1`, the outcome was inactive. For the compound `O=C(OCC(OC(=O)c1ccccc1)C1CC(C(O)C2CCCCC2)C(=O)O1)c1ccccc1` (stereo unspecified), the EC50 was over 200 µM and the half-inhibitory concentration (IC50) is 21.9 µM. With `COC(=O)c1cc2c3c(c1)Oc1cc(C(=O)OC)cc4c1C3c1c(cc(C(=O)OC)cc1O4)O2`, the EC50 is over 200 µM and the 50% inhibitory concentration (IC50) is 55 µM. Take `O=C(O)/C=C/C(=O)Nc1ncn[nH]1`: the EC50 is over 1380 µM and the half-maximal inhibitory concentration (IC50) was 1320 µM.

As for `COC(OC)C(O)C1OC=CC1n1cnc2c(N)ncnc21` (stereo unspecified), the EC50 was over 200 µM and the IC50 was over 200 µM. For `Cc1c(C)n(-c2ccccc2)c2nc(S(C)(=O)=O)nc(S(C)(=O)=O)c12`, the EC50 was over 200 µM and the IC50 stood at 0.288 µM. Regarding `Cc1cc2nc3c(=O)n(C)c(=O)nc-3n(-c3ccc(Cl)cc3)c2cc1C`, the result was inactive. As for `COc1ccccc1C(=O)OCC1CCCN2CCCCC12` (stereo unspecified), the EC50 was over 200 µM and the 50% inhibitory concentration (IC50) amounted to 27.5 µM. As for `CC(=O)Nc1ccc(/C=C(\NC(=O)c2ccccc2)C(=O)NNS(=O)(=O)c2ccc(C)cc2)cc1`, the EC50 was over 52.5 µM and the half-inhibitory concentration (IC50) was over 52.5 µM. For `COc1ccccc1NC(=S)N/N=C(/c1ccccc1)c1ccccn1`, the EC50 is over 0.2 µM and the half-maximal inhibitory concentration (IC50) stood at 0.0813 µM. As to `CCCCCCCCCCCC(=O)OCC1OC(n2cc(F)c(=O)[nH]c2=O)C(NC(=O)OCc2ccccc2)C(O)C1O` (stereo unspecified), the EC50 was over 30.9 µM and the IC50 is over 30.9 µM. `COc1cccc2ccc(C(=O)c3ccccc3)nc12`: the EC50 was over 97.7 µM and the IC50 is over 97.7 µM. For the compound `COc1cc(OC)c2c(c1)OC(c1ccccc1)CC2=O` (stereo unspecified), the EC50 is over 200 µM and the half-maximal inhibitory concentration (IC50) is over 200 µM. With `NC(=O)c1oc([N+](=O)[O-])c(-c2ccccc2)c1-c1ccccc1`, the EC50 is over 200 µM and the IC50 was 15.1 µM. In the case of `COC(=O)C1C(=O)C(C(=O)OC)C2(C)C(C(=O)OC)C(=O)C(C(=O)OC)C12` (stereo unspecified), the EC50 is over 468 µM and the 50% inhibitory concentration (IC50) is over 468 µM. Turning to `O=c1[nH]c2ccc([As](=O)(O)O)cc2[nH]1`, the EC50 is over 200 µM and the IC50 was over 200 µM. Turning to `Cn1c(CCC2(C)Cc3ccccc3C(=O)O2)cc2ccccc2c1=O` (stereo unspecified), the EC50 is over 200 µM and the 50% inhibitory concentration (IC50) was 36.3 µM. Regarding `Cc1ccc(C)c2sc3cc(=O)ccc-3nc12`, the EC50 was over 107 µM and the concentration for half-maximal inhibition (IC50) was over 107 µM.

(Values after PubChem BioAssay AID179 (DTP/NCI, 2004).)
